Source: patent publication US20020155496A1, “Saturated and unsaturated abietane derivatives, derived conjugates and uses in a diagnostic composition, a reagent and a device” (priority 1998, published 2002)

Test system: anti-abietic acid antibody
Assay: Competition ELISA assay with natural hormones (crossreaction of anti-abietic acid antibody)
Assay type: binding, mouse
Details: for inhibition / crossreaction in competition ELISA: increasing concentrations of hormone in 5 μg/ml anti-abietic acid antibody, abietic acid-ODN antigen phase, read at 492 nm
Method: The antigen phase was obtained as described in Example 11, and then increasing concentrations of hormone dissolved in a 5 μg/ml solution of anti-abietic acid antibody in PBS-Tween containing 10% by volume of horse serum are incubated for one hour at 37° C. After washes with PBS-Tween, an anti-mouse antibody antibody coupled to peroxidase, in solution in PBS-Tween-horse [lacuna] is incubated for one hour at 37° C. After washes, the enzymatic substrate, o-phenylenediamine, is added. The colorimetric reaction is stopped by adding 1N sulfuric acid. The intensity of the coloration is read at 492 nm on a bioMérieux Axia Micro-reader.

Structure (SMILES) | inhibition / crossreaction in competition ELISA | inhibition (concentration of 0.33 μmol/ml of hormone) [%]
C[C@]12CC[C@H]3[C@@H](CCC4=CC(=O)CC[C@@]43C)[C@@H]1CC[C@@H]2O [testosterone] | no inhibition | 
CC(=O)[C@H]1CC[C@H]2[C@@H]3CCC4=CC(=O)CC[C@]4(C)[C@H]3CC[C@]12C [progesterone] | no inhibition | 
N[C@@H](Cc1cc(I)c(Oc2cc(I)c(O)c(I)c2)c(I)c1)C(=O)O [Example T4] | crossreaction is observed | 25
